In PubChem BioAssay (NCI):
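GI50: concentration for 50% inhibition of growth. Definition used: TGI = concentration required for complete inhibition of growth.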

Experiments:
Test in all cases: NCI anticancer screen, dose series, 384-well format
SN12C renal = system: SN12C renal
SF-268 CNS = system: SF-268 CNS
HOP-62 NSCLC = system: HOP-62 NSCLC
SF-295 CNS = system: SF-295 CNS
EKVX NSCLC = system: EKVX NSCLC
RPMI-8226 leukemia = system: RPMI-8226 leukemia
UACC-257 melanoma = system: UACC-257 melanoma
OVCAR-8 ovarian = system: OVCAR-8 ovarian
SR leukemia = system: SR leukemia
LOX IMVI melanoma = system: LOX IMVI melanoma
BT-549 breast = system: BT-549 breast
MDA-MB-468 breast = system: MDA-MB-468 breast
SNB-19 CNS = system: SNB-19 CNS
NCI-H23 lung = system: NCI-H23 lung
HCC-2998 colon = system: HCC-2998 colon
DU-145 prostate = system: DU-145 prostate
SK-MEL-5 melanoma = system: SK-MEL-5 melanoma
HS 578T breast = system: HS 578T breast
SNB-75 CNS = system: SNB-75 CNS
M14 melanoma = system: M14 melanoma
OVCAR-4 ovarian = system: OVCAR-4 ovarian
MDA-MB-435 melanoma = system: MDA-MB-435 melanoma
RXF 393 renal = system: RXF 393 renal
SF-539 CNS = system: SF-539 CNS
NCI-H460 NSCLC = system: NCI-H460 NSCLC
HT29 colon = system: HT29 colon
NCI-H522 lung = system: NCI-H522 lung
TK-10 renal = system: TK-10 renal
A549 NSCLC = system: A549 NSCLC
CAKI-1 renal = system: CAKI-1 renal
UACC-62 melanoma = system: UACC-62 melanoma
MDA-MB-231 breast = system: MDA-MB-231 breast
KM12 colon = system: KM12 colon
HL-60(TB) leukemia = system: HL-60(TB) leukemia
NCI-H226 lung = system: NCI-H226 lung
NCI/ADR-RES ovarian = system: NCI/ADR-RES ovarian
HCT-116 colon = system: HCT-116 colon
PC-3 prostate = system: PC-3 prostate
MOLT-4 leukemia = system: MOLT-4 leukemia
NCI-H322M lung = system: NCI-H322M lung
ACHN renal = system: ACHN renal
A498 renal = system: A498 renal
HCT-15 colon = system: HCT-15 colon
U251 glioblastoma = system: U251 glioblastoma
SK-OV-3 ovarian = system: SK-OV-3 ovarian
OVCAR-3 ovarian = system: OVCAR-3 ovarian
T-47D breast = system: T-47D breast
IGROV1 ovarian = system: IGROV1 ovarian
HOP-92 NSCLC = system: HOP-92 NSCLC
MCF7 breast = system: MCF7 breast
COLO 205 colon = system: COLO 205 colon

Cc1ccc(Cl)cc1-c1nc(N)nc(Nc2ccc(Br)cc2)n1
GI50 (SN12C renal): 25.4 nM | TGI (SN12C renal): 37.5 µM | GI50 (SF-268 CNS): 50.4 nM | TGI (SF-268 CNS): > 100 µM | GI50 (HOP-62 NSCLC): 36 nM | TGI (HOP-62 NSCLC): 17.6 µM | GI50 (SF-295 CNS): 35.5 nM | TGI (SF-295 CNS): 12.6 µM | GI50 (EKVX NSCLC): 49.4 nM | TGI (EKVX NSCLC): > 100 µM | GI50 (RPMI-8226 leukemia): 20 nM | TGI (RPMI-8226 leukemia): 38.3 nM | GI50 (UACC-257 melanoma): 40.1 nM | TGI (UACC-257 melanoma): > 100 µM | GI50 (OVCAR-8 ovarian): 51.8 nM | TGI (OVCAR-8 ovarian): > 100 µM | GI50 (SR leukemia): 17.3 nM | TGI (SR leukemia): 37.6 nM | GI50 (LOX IMVI melanoma): 55.2 nM | TGI (LOX IMVI melanoma): 569 nM | GI50 (BT-549 breast): 49.1 nM | TGI (BT-549 breast): 374 nM | GI50 (MDA-MB-468 breast): 174 nM | TGI (MDA-MB-468 breast): 378 nM | GI50 (SNB-19 CNS): 54.1 nM | TGI (SNB-19 CNS): 14.4 µM | GI50 (NCI-H23 lung): 49.9 nM | TGI (NCI-H23 lung): > 100 µM | GI50 (HCC-2998 colon): 25.9 nM | TGI (HCC-2998 colon): 170 nM | GI50 (DU-145 prostate): 39.5 nM | TGI (DU-145 prostate): 269 nM | GI50 (SK-MEL-5 melanoma): 24.2 nM | TGI (SK-MEL-5 melanoma): 58.6 nM | GI50 (HS 578T breast): 21.4 nM | TGI (HS 578T breast): 51.1 nM | GI50 (SNB-75 CNS): 45.2 nM | TGI (SNB-75 CNS): 24.3 µM | GI50 (M14 melanoma): 28.9 nM | TGI (M14 melanoma): 71.2 nM | GI50 (OVCAR-4 ovarian): 57.3 nM | TGI (OVCAR-4 ovarian): 91.8 µM | GI50 (MDA-MB-435 melanoma): 20 nM | TGI (MDA-MB-435 melanoma): 39.4 nM | GI50 (RXF 393 renal): 32.8 nM | TGI (RXF 393 renal): 36.6 µM | GI50 (SF-539 CNS): 36.3 nM | TGI (SF-539 CNS): 1060 nM | GI50 (NCI-H460 NSCLC): 25.2 nM | TGI (NCI-H460 NSCLC): 63.3 nM | GI50 (HT29 colon): 34.4 nM | TGI (HT29 colon): 15.1 µM | GI50 (NCI-H522 lung): 23.9 nM | TGI (NCI-H522 lung): 47.9 nM | GI50 (TK-10 renal): 70 nM | TGI (TK-10 renal): > 100 µM | GI50 (A549 NSCLC): 88 nM | TGI (A549 NSCLC): > 100 µM | GI50 (CAKI-1 renal): 68.8 nM | TGI (CAKI-1 renal): > 100 µM | GI50 (UACC-62 melanoma): 45.3 nM | TGI (UACC-62 melanoma): > 100 µM | GI50 (MDA-MB-231 breast): 84.4 nM | TGI (MDA-MB-231 breast): > 100 µM | GI50 (KM12 colon): 43.4 nM | TGI (KM12 colon): 94.1 µM | GI50 (HL-60(TB) leukemia): 20.5 nM | TGI (HL-60(TB) leukemia): 35.2 nM | GI50 (NCI-H226 lung): 35.6 nM | TGI (NCI-H226 lung): 97.8 nM | GI50 (NCI/ADR-RES ovarian): 20.9 nM | TGI (NCI/ADR-RES ovarian): 51.3 nM | GI50 (HCT-116 colon): 45.2 nM | TGI (HCT-116 colon): > 100 µM | GI50 (PC-3 prostate): 46 nM | TGI (PC-3 prostate): 51.9 µM | GI50 (MOLT-4 leukemia): 21 nM | TGI (MOLT-4 leukemia): 37.2 nM | GI50 (NCI-H322M lung): 409 nM | TGI (NCI-H322M lung): > 100 µM | GI50 (ACHN renal): 77 nM | TGI (ACHN renal): > 100 µM | GI50 (A498 renal): 38 nM | TGI (A498 renal): 14.8 µM | GI50 (HCT-15 colon): 37.4 nM | TGI (HCT-15 colon): 271 nM | GI50 (U251 glioblastoma): 42.8 nM | TGI (U251 glioblastoma): 2870 nM | GI50 (SK-OV-3 ovarian): 38.6 nM | TGI (SK-OV-3 ovarian): 57 µM | GI50 (OVCAR-3 ovarian): 22.3 nM | TGI (OVCAR-3 ovarian): 45.8 nM | GI50 (T-47D breast): 23.5 µM | TGI (T-47D breast): > 100 µM | GI50 (IGROV1 ovarian): 73.3 nM | TGI (IGROV1 ovarian): > 100 µM | GI50 (HOP-92 NSCLC): 10.4 µM | TGI (HOP-92 NSCLC): > 100 µM | GI50 (MCF7 breast): 50.1 nM | TGI (MCF7 breast): > 100 µM | GI50 (COLO 205 colon): 34 nM | TGI (COLO 205 colon): 93.6 nM
